Experimental data from patent US20140348749A1, “IDENTIFICATION AND TREATMENT OF TUMORS SENSITIVE TO GLUCOSE LIMITATION” (Whitehead Institute for Biomedical Research, priority 2013, published 2014).
“Also recorded” adds a separate entry of the source. Where two headings read alike, the source gives them in different places.

What was measured:
[1] = test system: glucose limitation sensitive or resistant cell lines
Method: (§1) 250,000 cells then were attached to the plate by centrifugation at 2200 rpm without brakes for 5 min. For adherent cells, 40,000 to 80,000 cells were plated the night before the experiments. […] For spare respiratory capacity measurements, increasing FCCP concentrations (0.1, 0.5 and 2 uM) were used in order to assess maximum OCR of each cell line. For basal oxygen consumption measurements, cell number or protein concentration was used for normalization.
Metabolic responses of cell lines to mitochondrial uncoupling were analyzed by treating cells from a number of glucose limitation sensitive or resistant cell lines with the mitochondrial uncoupling agent FCCP and measuring OCR.

[2] = test system: tumors from glucose limitation sensitive cell line NCI-H929; assay: Metformin treatment of mice with established tumors; format: in vivo; settings: metformin 400 mg/kg, close to 3 weeks
Method: (§2) In vivo data was obtained initially using one cell line that is resistant to glucose limitation (NCI-H82) and one cell line that is sensitive to glucose limitation (NCI-H929). Mice harboring established tumors derived from these cell lines were treated with metformin (400 mg/kg) or vehicle (PBS) for close to 3 weeks and tumor size was measured. The tumor sizes were averaged for all tumors in that particular group at the end. […] Tumors from the sensitive line are on average half the size in mice treated with metformin than in mice treated with vehicle.

[3] = test system: tumors from glucose limitation resistant cell line NCI-H82; assay: as above; format: in vivo; settings: metformin 400 mg/kg, close to 3 weeks
Method: as §2

[4] = test system: panel of 8 cell lines with varying expression of CYC1 and UQCRC1; assay: Metformin sensitivity versus CYC1 and UQCRC1 expression in a panel of 8 cell lines; format: cell-based; settings: 1 mM glucose as low glucose condition
Method: We tested the hypothesis that expression of CYC1 and UQCRC1 could predict sensitivity to metformin under conditions in which glucose is limiting. […] 1 mM glucose was used as a low glucose condition in this experiment.

[5] = test system: glucose limitation sensitive and glucose limitation resistant tumor cell lines; assay: Proliferation of tumor cell lines exposed to metformin under low glucose; format: cell-based
Method: We tested the sensitivity of a panel of glucose limitation sensitive and glucose limitation resistant tumor cell lines to treatment with metformin, a compound that inhibits OXPHOS at least in part by inhibiting complex 1. Cells were exposed to 2 mM metformin for 3 days.

[6] = among tetracycline-class antibiotics; cited from earlier work
[7] = test system: Cal-62 cells; assay: Long term culture of mtDNA mutant cells in phenformin; format: cell-based; settings: Cal-62, 1.5 months, 5-20 uM phenformin
Method: Cells were split 1:10 when nearing confluence. […] The ratio of wild type to mutant mtDNA was calculated by summing the 11 Sanger Sequencing peak height measurements per nucleotide position for the wild type and mutant allele allowing for the percent mutant calculated. These values were averaged over three nucleotide positions for which the base in the wild type and mutant sequence differs.

[8] = test system: cells with mutations in Complex I; assay: Oxygen consumption rate (OCR) with phenformin, control or NDI1-expressing lines; format: cell-based
Method: as §1

[9] = test system: 143B Rho cells; assay: Proliferation of cells lacking mtDNA with phenformin; settings: 0.75 mM or 10 mM glucose
[10] = test system: NCI-H929 xenografts; assay: Phenformin in drinking water, tumour xenografts; format: in vivo, mice; settings: NCI-H929 (poor glucose consumption); phenformin 1.7 mg/ml in drinking water
Method: (§3) Further in vivo experiments were conducted using additional tumor cell lines. Xenografts were initiated with 2-5 million cells per injection site implanted subcutaneously into the right and left flanks of 5-8 week old male NOD.CB 17 Scid/J mice (Jackson Labs). Once tumours were palpable in all animals (>50 mm^3 volume by caliper measurements), mice were assigned randomly into biguanide treated or untreated groups and caliper measurements were taken every 3-4 days until tumour burden approached the limits set by institutional guidelines. Tumour volume was assessed according to the formula ½*W*W*L or 4/3*3.14*W/2*L/2*D/2 for large tumors. […] All experiments involving mice were carried out with approval from the Committee for Animal Care at MIT and under supervision of the Department of Comparative Medicine at MIT.

[11] = test system: Cal-62 xenografts; assay: Phenformin in drinking water, tumour xenografts; format: in vivo, mice; settings: Cal-62 (mtDNA mutations); phenformin 1.7 mg/ml in drinking water
Method: as §3

[12] = test system: BxPC3 xenografts; assay: Phenformin in drinking water, tumour xenografts; format: in vivo, mice; settings: BxPC3 (mtDNA mutations); phenformin 1.7 mg/ml in drinking water
Method: as §3

[13] = test system: U-937 xenografts; assay: Phenformin in drinking water, tumour xenografts; format: in vivo, mice; settings: U-937 (mtDNA mutations); phenformin 1.7 mg/ml in drinking water
Method: as §3

[14] = test system: KMS-26 xenografts; assay: Phenformin in drinking water, tumour xenografts; format: in vivo, mice
Method: as §3

[15] = test system: xenografts of mtDNA mutant cells expressing NDI1; assay: Phenformin in drinking water, xenografts of NDI1-expressing cells; format: in vivo, mice
Method: as §3

[16] = test system: cell lines with mtDNA-encoded Complex I mutations or impaired glucose utilization

## N#CC(C#N)=NNc1ccc(OC(F)(F)F)cc1 [FCCP, Carbonyl cyanide 4-(trifluoromethoxy)phenylhydrazone]
[1]; glucose limitation resistant cell lines
  increase in OCR upon FCCP: much greater increase in OCR
[1]; glucose limitation sensitive cells
  increase in OCR upon FCCP: only a modest increase

## CN(C)C(=N)NC(=N)N [metformin, N,N-dimethylimidodicarbonimidic diamide]
[2]
  cleaved caspase 3 in tumors compared with vehicle: increase in cleaved caspase 3; also recorded: increased level of cleaved caspase 3
  reduction in size of tumors compared with vehicle (PBS): approximately 50%
  tumor size in metformin treated versus vehicle treated mice: half the size
[3]
  cleaved caspase 3 in tumors compared with vehicle: not observed
  effect on size of tumors compared with vehicle (PBS): did not affect size of tumors
[4]
  relation of UQCRC1+CYC1 expression to metformin sensitivity: correlated with sensitivity to metformin; also recorded: increased sensitivity
[5]; 2 mM metformin, 3 days, 0.75 mM glucose
  sensitivity to metformin (proliferation) of glucose limitation sensitive versus resistant cell lines: markedly more sensitive; also recorded: greater inhibitory effects on proliferation
[5]; U937 cell line
  sensitivity of U937 cells to metformin: sensitive

## CN(C)c1ccc(O)c2c1C[C@H]1C[C@H]3[C@H](N(C)C)C(O)=C(C(N)=O)C(=O)[C@@]3(O)C(O)=C1C2=O [minocycline, (2E,4S,4aR,5aS,12aR)-2-(amino-hydroxy-methylidene)-4,7-bis(dimethylamino)-10,11,12a-trihydroxy-4a,5,5a,6-tetrahydro-4H-tetracene-1,3,12-trione]
[6]
  penetration into organs: greatest penetration into certain organs such as the prostate and brain

## N=C(N)NC(=N)NCCc1ccccc1 [phenformin, 2-(N-phenethylcarbamimidoyl)guanidine]
[7]
  sensitivity to low glucose after culture in phenformin: decrease in sensitivity to low glucose
  wild-type mtDNA content after culture in phenformin: significantly enriched wild-type mtDNA content
[8]
  effect of NDI1 expression on the effects of phenformin on oxygen consumption: almost completely rescued the effects of phenformin
[9]
  sensitivity of cells lacking mtDNA to phenformin: insensitive to phenformin
[10]
  growth of tumour xenografts: inhibited the growth
[11]
  growth of tumour xenografts: inhibited the growth
[12]
  growth of tumour xenografts: inhibited the growth
[13]
  growth of tumour xenografts: inhibited the growth
[14]; KMS-26 (poor glucose consumption), phenformin 1.7 mg/ml in drinking water
  growth of tumour xenografts: inhibited the growth
[14]; KMS-26 cells over-expressing GLUT3
  effects of phenformin on xenograft growth after over-expression of GLUT3: rescued
[15]
  effects of phenformin on xenograft growth after introduction of NDI1: rescued
[16]; 1.5-3.0 mM glucose
  phenformin sensitivity at intermediate glucose: substantial sensitivity persisted
[16]; BxPC3 pancreatic cancer cell line
  sensitivity of BxPC3 cells to phenformin: sensitive
[16]; cells with impaired glucose utilization, 0.75 mM glucose
  effect of GLUT3 over-expression on phenformin sensitivity: almost completely rescued the phenformin sensitivity
[16]; cells with mutations in Complex I, 0.75 mM glucose
  effect of NDI1 expression on the effects of phenformin on proliferation: almost completely rescued the effects of phenformin
[16]; low glucose sensitive cell lines, particularly those with impaired glucose utilization
  phenformin sensitivity in 0.75 versus 10 mM glucose: more sensitive to phenformin in 0.75 than 10 mM glucose
